Assay results from patent US8741871B2, “Trehalose compound, method for producing same, and pharmaceutical product containing the compound” (priority 2008, dated 2014).

Test system: Welch bacillus toxin (recombinant α-toxin)
Conditions: in vivo, ip

## CCCCCCCCCCC(CCCCCCCCCC)C(=O)OCC1O[C@H](O[C@H]2OC(COC(=O)C(CCCCCCCCCC)CCCCCCCCCC)[C@@H](O)C(O)C2O)C(O)C(O)[C@@H]1O (stereo partly drawn) [Example 1, 6,6′-bis-O-(2-decyldodecanoyl)-α,α′-trehalose]
  Number of surviving mice/number of treated mice, 2 hours later: 4/4
  Number of surviving mice/number of treated mice, 6 hours later: 4/4
  Number of surviving mice/number of treated mice, 12 hours later: 4/4
  Number of surviving mice/number of treated mice, 24 hours later: 3/4
  Number of surviving mice/number of treated mice, 48 hours later: 3/4
